The values that follow are results of earlier work, collected in US10806143B2, “Herbicidal composition in granular form” (priority 2009, dated 2020).

The conditions of the data set: at 20° C.

Regarding `CCOC(=O)C(Cl)Cc1cc(-n2nc(C)n(C(F)F)c2=O)c(F)cc1Cl` (stereo not shown) [carfentrazone-ethyl, ethyl 2-chloro-3-[2-chloro-5-(4-difluoromethyl-3-methyl-5-oxo-4,5-dihydro-[1,2,4]triazol-1-yl)-4-fluorophenyl]propionate], the water solubility was 22 milligrams per liter.
